test: hexokinase 1 inhibition, dose response, selectivity assay for HKDC1 inhibitor project, biochemical (AID 504763); conditions: not given

`CCc1ccc(S(=O)(=O)N=C2C=C(Nc3cccc(C(=O)O)c3)C(=O)c3ccccc32)cc1` [SMR000620248] and `Cc1ccc(S(=O)(=O)N=C2C=C(Nc3cccc(C(=O)O)c3)C(=O)c3ccccc32)cc1` [MLS000948051] are within 1.5-fold of each other in IC50: 5.83 µM for the first, 6.79 µM for the second.

`CCOC(=O)C1=C(Cc2ccc(OC)cc2)C(=O)c2ccccc2C1=O` [SMR000136995] and `CC(=O)N(C1=C(Cl)C(=O)c2ccccc2C1=O)c1ccc(C(=O)O)cc1` [MLS001196720] are within 1.5-fold of each other in IC50: 12.8 µM for the first, 8.68 µM for the second.

First: Cn1c2ccccc2c(=O)c2c(=O)n(-c3ccc(F)cc3)c(-c3cccs3)nc21 [SMR000439524]
Second: CC(=O)Nc1ccc(NC2=CC(=NS(=O)(=O)c3cccs3)c3ccccc3C2=O)cc1 [SMR000313158]
The IC50 of the first is 1.7-fold lower: 2.5 µM for the first, 4.2 µM for the second. The first is the more potent here.

First: COC(=O)C1CN(C#N)N(c2ccc(Cl)cc2)C12c1ccccc1-c1ccccc12 (stereo unspecified) [2'-(4-chlorophenyl)-1'-cyano-4'-spiro[fluorene-9,3'-pyrazolidine]carboxylic acid methyl ester]
Second: CCc1ccc(S(=O)(=O)N=C2C=C(Nc3ccc(C(=O)O)cc3)C(=O)c3ccccc32)cc1
The IC50 of the first is higher: over 80 µM for the first, 6.89 µM for the second.

First: NS(=O)(=O)c1ccc(N=Nc2c(=O)[nH]n3c(=O)c4c([nH]c23)CCCC4)cc1 [SMR000231775]
Second: Cc1ccc(N2C(=O)NC(=O)C(=Cc3cc(C)n(-c4sc5c(c4C#N)CCCC5)c3C)C2=O)cc1
The IC50 of the first is lower: 12.4 µM for the first, over 80 µM for the second.

First: Cc1cc(C)n2nc(SCc3nnc(SCc4ccccc4C)s3)nc2n1 [5,7-dimethyl-2-[({5-[(2-methylbenzyl)sulfanyl]-1,3,4-thiadiazol-2-yl}methyl)sulfanyl][1,2,4]triazolo[1,5-a]pyrimidine]
Second: Cc1cc(C)c(S(=O)(=O)Nc2cc(SCC(=O)O)c(O)c3ccccc23)cc1C [2-[1-hydroxy-4-[(2,4,5-trimethylphenyl)sulfonylamino]naphthalen-2-yl]sulfanylacetic acid]
The IC50 of the first is 3.8-fold lower: 3.71 µM for the first, 14.2 µM for the second.

Compared with `O=C1C(SCCO)=C(SCCO)C(=O)c2ccccc21` [NSC-95397], `O=C1C=C(N2CCOCC2)c2ccccc2C1=O` [SMR000516584] is 6.4-fold lower in IC50: 8.11 µM for the first, 1.27 µM for the second. The second is the more potent here.

Compared with `Oc1ccc(O)c(Cc2nc3ccccc3[nH]2)c1` [SMR000298430], `O=C(O)c1ccc(N=Cc2c(O)ccc3ccccc23)cc1` [MLS001205050] is 10-fold higher in IC50: 7.03 µM for the first, 70.8 µM for the second.

First: CCCc1nc2oc3c(NCCOCCO)ncnc3c2c2c1COC(C)(C)C2 [SMR000048002]
Second: CC(C)c1nc2oc3c(NCC4CCCO4)ncnc3c2c2c1COC(C)(C)C2 (stereo unspecified) [MLS000084034]
The IC50 of the first is 4.7-fold higher: 11.1 µM for the first, 2.36 µM for the second. The second is the more potent here.

First: [H]/N=C(\N/C(=N/[H])NCCCCCCNC(=N)NC(=N)Nc1ccc(Cl)cc1)Nc1ccc(Cl)cc1 [2-[amino-[6-[[amino-[(E)-[amino-(4-chloroanilino)methylidene]amino]methylidene]amino]hexylimino]methyl]-1-(4-chlorophenyl)guanidine]
Second: CCOC(=O)c1ccc(NC(=O)CSc2n[nH]c(-c3ccncc3)n2)cc1
The IC50 of the first is higher: over 80 µM for the first, 10.5 µM for the second. The second is the more potent here.

`CC(=O)NC1C(=O)N(CCN2CCOCC2)c2ccc(Br)cc21` (stereo unspecified) [MLS001215987] and `CC(=O)NC1C(=O)N(CCN2CCOCC2)c2ccc(F)cc21` (stereo unspecified) [MLS001215963] cannot be ordered by IC50: over 80 µM for the first, over 80 µM for the second.

`CC(=O)n1cc(N(C(=O)CCl)c2ccc([N+](=O)[O-])cc2)c2ccccc21` [2-chloranyl-N-(1-ethanoylindol-3-yl)-N-(4-nitrophenyl)ethanamide] and `O=C(COC(=O)c1n[nH]c2ccccc12)c1cccc(Br)c1` [[2-(3-bromophenyl)-2-oxoethyl] 1H-indazole-3-carboxylate] cannot be ordered by IC50: over 80 µM for the first, over 80 µM for the second.

`COc1cc(C2c3c([nH]c(=O)[nH]c3=O)Nc3ccc4ccccc4c32)cc(OC)c1OC` (stereo unspecified) [MLS000663320] and `Cc1ccc(C)c(-n2c3nc(=O)[nH]c(=O)c-3cc3cc([N+](=O)[O-])ccc32)c1` [10-(2,5-Dimethyl-phenyl)-7-nitro-10H-pyrimido[4,5-b]quinoline-2,4-dione] cannot be ordered by IC50: over 80 µM for the first, over 80 µM for the second.

Going from `O=C(NC1=C(NC2CCS(=O)(=O)C2)C(=O)c2ccccc2C1=O)c1ccccc1` (stereo unspecified) [N-[3-[(1,1-dioxo-3-thiolanyl)amino]-1,4-dioxo-2-naphthalenyl]benzamide] to `Oc1nc2ccccc2n2c(-c3ccccc3)nnc12` [SMR000162081], the IC50 rises from 6.33 µM to 19 µM (3-fold).

First: O=C(O)c1ccccc1-c1c2cc(I)c(=O)c(I)c-2oc2c(I)c(O)c(I)cc12 [sodium;2-(2,4,5,7-tetraiodo-3-oxido-6-oxo-9-xanthenyl)benzoate]
Second: O=c1c2ccccc2nc(/C=C/c2cccnc2)n1CCc1ccccc1
The IC50 of the first is lower: 47.2 µM for the first, over 80 µM for the second.

Work on `Cc1cc(C=C2C(=O)NC(=O)N(c3ccc(Cl)cc3)C2=O)c(C)n1-c1sc2c(c1C#N)CCCC2` [SMR000211212] yielded an IC50 of over 80 µM.

same assay, conditions: inactive by the depositor's call

`COc1ccc(OC)c2nc(O)c(CCNC(=O)c3cc4ccccc4o3)cc12` [SMR000018515] and `CCOc1ccccc1Nc1nnc(SCc2nnc(-c3cc(OC)c(OC)c(OC)c3)o2)s1` [N-(2-ethoxyphenyl)-5-[[5-(3,4,5-trimethoxyphenyl)-1,3,4-oxadiazol-2-yl]methylthio]-1,3,4-thiadiazol-2-amine] are within 1.5-fold of each other in IC50: 23.8 µM for the first, 21.8 µM for the second.

First: COP(=O)(OC)c1ccc(NCc2cc(O)ccc2O)cc1 [MLS002702382]
Second: COc1ccc(S(=O)(=O)Nc2cc(SCC(=O)O)c(O)c3ccccc23)cc1 [[(1-hydroxy-4-{[(4-methoxyphenyl)sulfonyl]amino}-2-naphthyl)thio]acetic acid]
The IC50 of the first is 2.4-fold lower: 26.2 µM for the first, 63.3 µM for the second. The first is the more potent here.

`Cc1ccc(C(=O)c2c(C)oc3c2C(=O)C(=O)c2ccccc2-3)cc1` [2-Methyl-3-(4-methyl-benzoyl)-naphtho[1,2-b]furan-4,5-dione] showed an IC50 of 21.5 µM.
